In patent publication US20130178523A1, “ANTI-CANCER COMPOSITIONS AND METHODS” (THE PENN STATE RESEARCH FOUNDATION, priority 2007, published 2013):

Tests used:
[1] = test system: UACC 903 cells; experiment: BrdU ELISA cellular proliferation; format: cell-based, human; details: 24 hours
Method: Proliferation rate is measured using a BrdU ELISA kit (Roche Applied Sciences, Indianapolis, Ind.).
BrdUrd is used to label cells for 4-6 hours. At 15 μM concentration, ISC-4 and ISC-6 reduced UACC 903 cellular proliferative potential by ˜80-90% compared to controls. Results represent the average of 3 independent experiments; bars represent SEM. The average value is represented as the percentage of control DMSO treated cells.

[2] = test system: UACC 903 cells; experiment: Apo-ONE caspase-3/7 apoptosis assay; format: cell-based, human; details: 24 hours
Method: Apoptosis rates are measured using an Apo-ONE Homogenous caspase-3/7 Assay kit (Promega Corporation, Madison, Wis.).
The isoselenocyanate compounds promote apoptosis in melanoma cells. […] The graphs in FIGS. 3A and 3B show fold increase in caspase-3/7 activity relative to DMSO vehicle treated cells on the x-axis. Results represent average of 3 independent experiments. Bars indicate SEM.

[3] = Toxicity assessments in nude mice (blood parameters, histology); format: in vivo
Description: Animals are sacrificed by CO2 asphyxiation and blood collected from each animal in plasma separator tubes with lithium heparin (BD Microtainer, BD, Franklin Lakes, N.J.) following cardiac puncture and analyzed for AST (aspartate aminotransferase), ALT, (alanyl aminotransferase), alkaline phosphatase, glucose and creatinine to ascertain liver, heart, kidney and pancreas related toxicity. For morphological examination of blood cells, whole blood is collected in microtainer tubes containing K2EDTA (BD Microtainer, BD, Franklin Lakes, N.J.) and RBC, WBC, lymphocytes, monocytes, eosinophils, platelets, total hemoglobin and hematocrit percentage analyzed. Blood is also microscopically examined for segregates, polychromatin bodies, and smudge cells. A portion of liver, heart, kidney, spleen, intestine pancreas and adrenal from each animal is formalin fixed and paraffin-embedded to examine toxicity-related changes in cell or organ morphology by H&E staining.

[4] = test system: UACC 903 cells; experiment: Topical application on melanoma tumor growth in vivo; set-up: species or system mice; details: topical daily
Method: Chemopreventive or chemotherapeutic effect of ISC-4 on cutaneous tumor development is measured by subcutaneous injection of 1 million UACC 903 cells in 0.2 ml of DMEM −10% FBS above both the left and right rib cages of 4- to 6-week old female athymic nude mice using 24 g needles. […] The dimensions of the developing tumors are measured alternate days using calipers and the sizes estimated in cubic millimeters. A minimum of 5 mice per group is used for the topical treatment.
Chemopreventive or chemotherapeutic effect of ISC-4 on cutaneous tumor development is measured by subcutaneous injection of 1 million UACC 903 cells in 0.2 ml of DMEM −10% FBS above both the left and right rib cages of 4- to 6-week old female athymic nude mice using 24 g needles. 24 hours later, animals were treated daily with ISC-4 (12.5-50 μM), PBITC (12.5-50 μM), or vehicle control (acetone) for 3-4 weeks. The dimensions of the developing tumors are measured alternate days using calipers and the sizes estimated in cubic millimeters. A minimum of 5 mice per group was used for the topical treatment.

[5] = test system: T-98-G; experiment: MTS assay, glioblastoma cells; details: Homo sapiens, T98G, 24 h
[6] = test system: HT-1080; experiment: MTS assay, fibrosarcoma cells; details: Homo sapiens, HT-1080, 24 h
[7] = test system: Caco-2; experiment: MTS assay, colon cancer cells; details: Homo sapiens, Caco-2, 24 h
[8] = test system: MDA-MB-231; experiment: MTS assay, breast cancer cells; details: Homo sapiens, MDA-MB-231, 24 h
[9] = test system: WM115 melanoma cells; experiment: MTS cell viability assay, WM115; details: Homo sapiens, WM-115, 24 h
[10] = test system: PC-3; experiment: MTS assay, prostate cancer cells; details: Homo sapiens, PC-3, 24 h
[11] = test system: 1205 Lu melanoma cells; experiment: MTS cell viability assay, 1205 Lu; details: Homo sapiens, 24 h
[12] = test system: normal human fibroblasts (FF2441); experiment: IC50 in normal human fibroblasts
[13] = test system: UACC 903 melanoma cells; experiment: MTS cell viability assay, UACC 903; details: Homo sapiens, UACC-903, 24 h
[14] = test system: pAkt and downstream pPRAS40 in UACC 903 tumors; experiment: Western blot analysis of excised tumors; details: day 13, 0.76 μmoles i.p. alternate days, versus DMSO or PBITC
[15] = test system: Akt signaling pathway in melanoma cell line WM115; experiment: Western blot, Akt signaling pathway in WM115; details: FIG. 10B
[16] = test system: Akt signaling pathway in melanoma cell line 1205 Lu; experiment: Western blot, Akt signaling pathway in 1205 Lu; details: FIG. 10A
[17] = test system: UACC 903 cells; experiment: Cell cycle analysis (propidium iodide, FACScan); details: 24 hours
[18] = test system: UACC 903 tumors; experiment: Proliferation/apoptosis rates in tumors (TUNEL, Ki-67)
[19] = test system: GFP tagged UACC 903 human melanoma cells; experiment: Topical application on reconstructed human skin with melanoma cells; details: 12.5 and 25 μM topical; compared to DMSO treated or untreated skins
[20] = test system: UACC 903 melanoma cells; experiment: Tumor development in nude mice, subcutaneous UACC 903, i.p. treatment; details: 0.76 μmoles (3 ppm selenium) i.p. thrice per week; day 24; doses 3× lower than isothiocyanates
[21] = test system: Akt signaling pathway; experiment: Western blot of Akt signaling pathway in cultured melanoma cells (FIG. 9); details: 24 hours

[Se]=C=NCCCCc1ccccc1 [ISC-4, Phenylbutyl Isoselenocyanate]
proliferative potential with increasing concentrations ([1]; 5, 10, 15 μM): decreased proliferative potential
fold more effective than PBITC or PHITC at inhibiting cellular proliferation ([1]; 5-15 μM): ~2 fold
cellular apoptosis with increasing concentrations (caspase-3/7 activity, words) ([2]; 5, 10, 15 μM): increase cellular apoptosis
fold more effective than PBITC at inducing apoptosis ([2]; caspase-3/7 activity, 5-15 μM): ~2 fold
blood SGOT, SGPT, alkaline phosphatase, glucose and creatinine ([3]; 0.76 μmoles i.p. 3 times per week for 3 weeks, compared to vehicle DMSO): did not alter parameters
histological examination of vital organ sections ([3]; hematoxylin and eosin stained, including the liver): did not significantly change cell morphology or organ structure
basal urea nitrogen (BUN), creatinine and glucose levels ([3]; treated versus control animals): not significantly different
systemic toxicity by body weight ([4]; 0.063-0.19 μmoles equivalent to 0.25-0.75 ppm): no systemic toxicity
tumor size ([4]; 0.063-0.19 μmoles equivalent to 0.25-0.75 ppm, versus vehicle or PBITC): decreased tumor size
systemic toxicity by body weight ([4]; 12.5-50 μM): no systemic toxicity
reduction of melanoma tumor development ([4]; 12.5-50 μM, compared to PBITC or vehicle control): ~50%
IC50 [5]: 27 ± 1 µM
IC50 [6]: 11 ± 1 µM
IC50 [7]: 12 ± 3 µM
IC50 [8]: 21 µM
IC50 [9]: 7 µM
IC50 [10]: 19 ± 1 µM
IC50 [11]: 11 µM
fold greater sensitivity of melanoma cells (UACC 903) than normal fibroblasts (FF2441) ([12]; 24 hours): 3 fold
IC50 ([12]; Homo sapiens, FF2441, 24 h, read-out: IC50 (drug concentration required to kill fibroblasts)): 37.5 µM
IC50 [13]: 12 ± 3 µM
expression of downstream PRAS40 (phosphorylated) in tumor lysates ([14]; p<0.001): significantly decreased expression
expression of phosphorylated (active) Akt in tumor lysates ([14]; p<0.05): significantly decreased expression
apoptosis indicated by cleaved PARP protein levels [15]: causes significant apoptosis
apoptosis indicated by cleaved PARP protein levels [16]: causes significant apoptosis
G0/G1 cell population ([17]; 5 μM): 59.4
G2/M cell population ([17]; 5 μM): 16.3
S cell population ([17]; 5 μM): 24.3
subG0/G1 cell population ([17]; 5 μM): 2.9
G0/G1 cell population ([17]; 10 μM): 41.6
G2/M cell population ([17]; 10 μM): 29.4
S cell population ([17]; 10 μM): 29.0
subG0/G1 cell population ([17]; 10 μM): 12.3
G0/G1 cell population ([17]; 15 μM): 35.5
G2/M cell population ([17]; 15 μM): 28.0
S cell population ([17]; 15 μM): 36.5
subG0/G1 cell population ([17]; 15 μM): 22.8
proliferating tumor cells (Ki-67, words) ([18]; compared to PBITC, size and time matched tumors): slightly fewer proliferating tumor cells
TUNEL positive (apoptotic) cells in tumors, fold versus DMSO or PBITC ([18]; tumors harvested at day 11 and 13, 3 ppm selenium i.p.): ~3 fold
decrease in tumor area occupied by melanoma cells [19]: ~80%
melanoma tumor volume [20]: reduce tumor volume
concentration completely inhibiting the Akt3 pathway (Western blot) [21]: 10 µM
level of apoptosis (cleaved PARP) versus PBITC [21]: higher level of apoptosis
